Key:
[1] = system: (2S,3S)-2,3-butanediol dehydrogenase; assay: Reductive activity of the purified enzyme on various substrates, NADH as coenzyme; type: biochemical, Zoogloea ramigera; conditions: reduction; substrate 50 mM, standard reaction condition; activity on 2,3-butanedione taken as 100
Method: React a reaction solution containing 50 mM potassium phosphate buffer (pH 5.5), 0.2 mM NADH, 20 mM 2,3-butanedione and the enzyme at 30° C. Then, measure the decrease of absorbance at 340 nm relative to the decrease of NADH. 1 U is defined as the amount of enzyme that catalyzes a 1-μmol decrease of NADH in 1 minute. The protein can be quantified by a dye binding method using BioRad protein assay kit.
The reductive activity of the enzyme obtained in Example 1 was measured on various substrates (50 mM) under the standard reaction condition.

[2] = target: L-2,3-butanediol dehydrogenase (Corynebacterium glutamicum, UniProt Q9ZNN8); conditions: Biosci. Biotechnol. Biochem. 65, 1876-1878 (2001); cited from earlier work
L-2,3-butanediol dehydrogenase, sequence (Q9ZNN8 whole entry): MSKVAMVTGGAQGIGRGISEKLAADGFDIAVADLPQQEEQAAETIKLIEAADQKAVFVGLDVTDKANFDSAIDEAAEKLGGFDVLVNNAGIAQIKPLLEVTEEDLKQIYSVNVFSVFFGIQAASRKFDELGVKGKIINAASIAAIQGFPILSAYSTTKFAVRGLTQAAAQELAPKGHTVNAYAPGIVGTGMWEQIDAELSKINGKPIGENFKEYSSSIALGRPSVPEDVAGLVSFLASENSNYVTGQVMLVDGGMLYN

[3] = system: (2S,3S)-2,3-butanediol dehydrogenase; assay: Dehydrogenase (oxidative) activity of the purified enzyme on various substrates, NAD+ as coenzyme; type: biochemical, Zoogloea ramigera; conditions: oxidation; substrate 50 mM, standard reaction condition; activity on (2S,3S)-2,3-butanediol taken as 100
Method: (§1) React a reaction solution containing 50 mM glycine-sodium hydroxide buffer (pH 11.0), 2.5 mM NAD^+, 50 mM (2S,3S)-2,3-butanediol and the enzyme at 30° C. Then, measure the increase of absorbance at 340 nm relative to the increase of NADH. 1 U is defined as the amount of enzyme that catalyzes a 1-μmol increase of NADH in 1 minute.
The dehydrogenase activity of the enzyme obtained in Example 1 was measured against various substrates (50 mM) under the standard reaction condition.

acetoin reductase = acetoin reductase (Klebsiella pneumoniae, UniProt Q48436); conditions: J. Ferment. Technol. 83, 32-37 (1997); cited from earlier work
acetoin reductase, sequence (Q48436 whole entry): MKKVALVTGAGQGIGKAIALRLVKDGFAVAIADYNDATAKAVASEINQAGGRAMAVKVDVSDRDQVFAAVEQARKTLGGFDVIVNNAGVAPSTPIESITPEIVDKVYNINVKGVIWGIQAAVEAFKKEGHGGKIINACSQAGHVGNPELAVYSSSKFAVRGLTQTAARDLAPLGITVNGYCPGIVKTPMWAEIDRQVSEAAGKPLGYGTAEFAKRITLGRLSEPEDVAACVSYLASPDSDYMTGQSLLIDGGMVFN

[4] = system: (2S,3S)-2,3-butanediol dehydrogenase; assay: Activation of (2S,3S)-2,3-butanediol dehydrogenase activity by divalent ions; type: biochemical, Zoogloea ramigera; conditions: divalent ion 1 mM; activity in the absence of the ions taken as 100
Method: as §1
The activation effect by a divalent ion can be measured as described above by adding 1 mM of a metal ion into the above-mentioned reaction solution.

[5] = (2S,3S)-2,3-butanediol oxidation activity of enzyme preparations from Zoogloea ramigera; type: biochemical; conditions: fraction after each purification step
Method: as §1
Zoogloea ramigera strain DSM287 was cultured at 28° C. for 54 hours in 1.2 L of YPD medium that uses glycerol as a carbon source, and wet bacterial cells were prepared by centrifugation. Approximately 30 g of the obtained wet bacterial cells were suspended in a 50 mL solution of 50 mM potassium phosphate buffer (pH8.0) and 1 mM 2-mercaptoethanol. The cells were then disrupted using Multi-beads shocker (Yasui Kikai), and bacterial cell debris was removed by centrifugation to obtain cell-free extract. Protamine sulfate was added to this cell-free extract and nucleic acids were removed by centrifugation to yield the supernatant. Ammonium sulfate was added to this supernatant up to 30% saturation, and this was applied onto phenyl-sepharose column (2.6 cm×10 cm) equilibrated with standard buffer (10 mM Tris-HCl buffer (pH8.0) and 0.01% 2-mercaptoethanol) comprising 30% ammonium sulfate. After washing the column with the same buffer, gradient elution was performed with 30% to 0% saturated ammonium sulfate. […]

Molecule: CC(=O)C(C)=O [2,3-Butanedione]
- Relative activity (%) [1]: 100%

Molecule: CCC(C)O (stereo not drawn) [2-butanol]
- activity of the enzyme towards the substrate [2]: lacks activity

Molecule: C[C@@H](O)[C@@H](C)O [(2R,3R)-2,3-butanediol]
- Relative activity (%) [3]: 2.89%

Molecule: C[C@H](O)[C@H](C)O [(2S,3S)-2,3-butanediol]
- action of the enzyme on the substrate (acetoin reductase): doesnot act
- Relative activity (%) [3]: 100%

Molecule: C[C@@H](O)CO [(R)-1,2-propanediol]
- Relative activity (%) [3]: 0.90%

Molecule: OC[C@@H](O)CCl [(R)-3-chloro-1,2-propanediol]
- Relative activity (%) [3]: 3.62%

Molecule: C[C@H](O)CO [(S)-1,2-propanediol]
- Relative activity (%) [3]: 55.3%

Molecule: OC[C@H](O)CCl [(S)-3-chloro-1,2-propanediol]
- Relative activity (%) [3]: 0%

Molecule: CC(=O)C(C)O (stereo not drawn) [Acetoin]
- Relative activity (%) [1]: 58.9%
- Relative activity (%) [3]: 0.26%

Molecule: [Ba+2] [Ba^2+]
- Relative activity (%) [4]: 112%

Molecule: [Ca+2] [Ca^2+]
- Relative activity (%) [4]: 113%

Molecule: [Co+2] [Co^2+]
- Relative activity (%) [4]: 106%

Molecule: [Cu+2] [Cu^2+]
- Relative activity (%) [4]: 107%

Molecule: [Mg+2] [Mg^2+]
- Relative activity (%) [4]: 110%

Molecule: [Mn+2] [Mn^2+]
- Relative activity (%) [4]: 104%

Molecule: [Ni+2] [Ni^2+]
- Relative activity (%) [4]: 104%

Molecule: [Zn+2] [Zn^2+]
- Relative activity (%) [4]: 109%

Molecule: CC(O)C(C)O (stereo not drawn) [meso-2,3-butanediol]
- action of the enzyme on the substrate (acetoin reductase): specifically act
- Relative activity (%) [3]: 0%

Molecule: (R)-2-butanol
- Relative activity (%) [3]: 1.11%

Molecule: (S)-2-butanol
- Relative activity (%) [3]: 43.3%

Molecule: Hydroxyapatite
- Specific activity (U/mg) [5]: 60.9 U/mg
